Source: EPA's ToxRefDB 2

Columns and labels:
[1] = test system: mouse; conditions: Carcinogenicity; cd1; Oral; Feed; dose end: 18 month; group: systemic; systemic / pathology microscopic / liver / vacuolization + systemic / pathology microscopic / seminal vesicle / distended + systemic / …
[2] = test system: rat; conditions: Prenatal developmental toxicity study, other, Oral, Gavage/Intubation, dose end: 16 GD
[3] = test system: rabbit; conditions: Prenatal developmental toxicity study, new zealand white, Oral, Gavage/Intubation, dose end: 19 GD
[4] = test system: rat; conditions: Combined chronic toxicity/carcinogenicity, other, Oral, Feed, dose end: 24 month, group: systemic
[5] = test system: rat; conditions: Multigenerational reproductive toxicity study, long evans, Oral, Gavage/Intubation, dose end: 1 generation
[6] = test system: hamster; conditions: Multigenerational reproductive toxicity study, golden syrian, Oral, Gavage/Intubation, dose end: 1 generation
[7] = test system: dog; conditions: Chronic toxicity; beagle; Oral; Feed; dose end: 52 week; group: systemic; systemic / clinical chemistry / cholesterol / cholesterol
[8] = test system: rat; conditions: Sub-acute dermal toxicity, sprague dawley, Topical, dose end: 28 day, group: systemic
[9] = test system: dog; conditions: Subchronic oral toxicity in nonrodent, beagle, Feed, dose end: 13 week, group: systemic
[10] = test system: dog; conditions: Chronic toxicity; beagle; Oral; Feed; dose end: 24 month; group: systemic; systemic / clinical chemistry / alanine aminotransferase (alt/sgpt) / alanine aminotransferase (alt/sgpt) + systemic / clinical chemistry / …
[11] = test system: rat; conditions: Prenatal developmental toxicity study, other, Oral, Gavage/Intubation, dose end: 16 GD; remark: listed apart in the source
[12] = test system: rabbit; conditions: Prenatal developmental toxicity study, new zealand white, Oral, Capsule, dose end: 18 GD
[13] = test system: dog; conditions: Chronic toxicity, beagle, Oral, Feed, dose end: 12 month, group: systemic
[14] = test system: rat; conditions: Combined chronic toxicity/carcinogenicity; sprague dawley; Oral; Feed; dose end: 115 week; group: systemic; systemic / in life observation / body weight / body weight
[15] = test system: mouse; conditions: Combined chronic toxicity/carcinogenicity, cd1, Oral, Feed, dose end: 89 week, group: systemic
[16] = test system: rat; conditions: Multigenerational reproductive toxicity study, sprague dawley, Oral, Feed, dose end: 2 generation
[17] = test system: mouse; conditions: Carcinogenicity, cd1, Oral, Feed, dose end: 18 month, group: systemic
[18] = test system: rat; conditions: Combined chronic toxicity/carcinogenicity, sprague dawley, Oral, Feed, dose end: 24 month, group: systemic
[19] = test system: rat; conditions: Subchronic oral toxicity in rodents, sprague dawley, Feed, dose end: 90 day, group: systemic
[20] = test system: rat; conditions: Multigenerational reproductive toxicity study, sprague dawley, Oral, Feed, dose end: 2 generation; remark: listed apart in the source
[21] = test system: dog; conditions: Chronic toxicity, beagle, Oral, Capsule, dose end: 52 week, group: systemic
[22] = group: developmental, developmental / developmental malformation / bone / short + developmental / developmental malformation / bone / supernumerary
[23] = group: developmental, developmental / developmental malformation / bone / short + developmental / developmental malformation / bone / supernumerary + …
[24] = group: maternal, systemic / in life observation / body weight / body weight gain + systemic / in life observation / food consumption / food consumption
[25] = group: maternal, systemic / in life observation / body weight / body weight gain + systemic / in life observation / food consumption / food consumption + …
[26] = group: developmental, developmental / developmental malformation / other / other
[27] = group: maternal, reproductive / reproductive performance / postimplantation loss / postimplantation loss + reproductive / reproductive performance / …
[28] = systemic / organ weight / brain / absolute + systemic / organ weight / brain / relative to body weight
[29] = group: parental, systemic / organ weight / epididymis / absolute + systemic / organ weight / testes / absolute + systemic / pathology gross / sperm measure…
[30] = group: parental, systemic / pathology gross / sperm measure / sperm count + systemic / pathology microscopic / testes / atrophy
[31] = group: reproductive, reproductive / reproductive performance / pregnancy / pregnancy + reproductive / reproductive performance / resorptions / resorptions + …
[32] = group: offspring, systemic / in life observation / body weight / offspring (pup) weight
[33] = group: parental, systemic / pathology gross / kidney / enlarged + systemic / pathology gross / liver / enlarged + systemic / pathology gross / sperm measure…
[34] = systemic / pathology microscopic / epididymis / hypospermia + systemic / pathology microscopic / testes / degeneration
[35] = systemic / pathology microscopic / epididymis / hypospermia + systemic / pathology microscopic / testes / degeneration + systemic / …
[36] = systemic / in life observation / food consumption / food consumption + systemic / clinical chemistry / cholesterol / cholesterol + systemic…
[37] = group: developmental, developmental / developmental malformation / bone / bipartite ossification + developmental / developmental malformation / bone / dumbbell …
[38] = group: maternal, systemic / organ weight / liver / absolute
[39] = group: developmental, developmental / developmental malformation / bone / irregular ossification
[40] = group: maternal, reproductive / reproductive performance / aborted / aborted + systemic / in life observation / clinical signs / ataxia
[41] = group: maternal, reproductive / reproductive performance / aborted / aborted + systemic / in life observation / clinical signs / ataxia + systemic / in life …
[42] = systemic / pathology microscopic / lung / [other] + systemic / in life observation / clinical signs / inappetence + systemic / in life …
[43] = systemic / in life observation / mortality / mortality
[44] = group: offspring, systemic / organ weight / liver / relative to body weight
[45] = group: parental, systemic / organ weight / kidney / relative to body weight
[46] = systemic / hematology / anemia / anemia - nos + systemic / hematology / erythrocyte (rbc) count differential / erythrocyte (rbc) + systemic…
[47] = systemic / in life observation / clinical signs / fur (altered appearance) + systemic / pathology gross / penis / prolapse
[48] = systemic / hematology / erythrocyte (rbc) count differential / erythrocyte (rbc) + systemic / hematology / hematocrit (hct) / hematocrit (…
[49] = systemic / in life observation / clinical signs / fur (altered appearance) + systemic / in life observation / clinical signs / urine, …
[50] = group: parental, systemic / pathology gross / spleen / discolored + systemic / pathology microscopic / spleen / congestion + systemic / pathology microscopic…
[51] = group: reproductive, reproductive / offspring survival early / litter size / litter size
[52] = systemic / clinical chemistry / cholesterol / cholesterol + systemic / clinical chemistry / bilirubin / total bilirubin + systemic / …
[53] = systemic / hematology / platelet / platelet + systemic / organ weight / spleen / absolute + systemic / organ weight / spleen / relative to …

## CCC(C)n1c(=O)[nH]c(C)c(Br)c1=O (stereo not given) [Bromacil]
[1]
  LEL: 36 mg/kg/day
  LOAEL: 36 mg/kg/day
  NEL: < 36 mg/kg/day
  NOAEL: < 36 mg/kg/day
[2]; [22]
  LEL: 200 mg/kg/day
  LOAEL: 200 mg/kg/day
[2]; [23]
  NEL: 75 mg/kg/day
  NOAEL: 75 mg/kg/day
[2]; [24]
  LEL: 75 mg/kg/day
  LOAEL: 75 mg/kg/day
[2]; [25]
  NEL: 20 mg/kg/day
  NOAEL: 20 mg/kg/day
[3]; [26]
  LEL: 500 mg/kg/day
  LOAEL: > 500 mg/kg/day
  NEL: 300 mg/kg/day
  NOAEL: ≥ 500 mg/kg/day
[3]; [27]
  LEL: 300 mg/kg/day
  LOAEL: 300 mg/kg/day
  NEL: 100 mg/kg/day
  NOAEL: 100 mg/kg/day
[4]; systemic / in life observation / body weight / body weight gain
  LOAEL: 9.82 mg/kg/day
[4]; systemic / in life observation / body weight / body weight gain + systemic / in life observation / body weight / body weight + systemic / …
  NOAEL: 1.96 mg/kg/day
[4]; [28]
  LEL: 1.96 mg/kg/day
  NEL: < 1.96 mg/kg/day

## COC(=O)Nc1nc2ccccc2[nH]1 [Carbendazim]
[5]; [29]
  LOAEL: > 400 mg/kg/day
  NOAEL: ≥ 400 mg/kg/day
[5]; [30]
  LEL: 50 mg/kg/day
  NEL: < 50 mg/kg/day
[5]; group: reproductive, reproductive / reproductive performance / pregnancy / pregnancy + reproductive / offspring survival early / litter viability other / litter …
  LEL: 200 mg/kg/day
[5]; group: reproductive, reproductive / reproductive performance / pregnancy / pregnancy + reproductive / reproductive performance / resorptions / resorptions
  NEL: 100 mg/kg/day
[5]; [31]
  LOAEL: > 400 mg/kg/day
  NOAEL: ≥ 400 mg/kg/day
[6]; [32]
  LEL: 400 mg/kg/day
  LOAEL: > 400 mg/kg/day
  NEL: < 400 mg/kg/day
  NOAEL: ≥ 400 mg/kg/day
[6]; [33]
  LEL: 400 mg/kg/day
  LOAEL: > 400 mg/kg/day
  NEL: < 400 mg/kg/day
  NOAEL: ≥ 400 mg/kg/day
[7]
  LEL: 16.5 mg/kg/day
  LOAEL: 16.5 mg/kg/day
  NEL: 6.43 mg/kg/day
  NOAEL: 6.43 mg/kg/day
[8]; [34]
  LEL: 120 mg/kg/day
  LOAEL: 120 mg/kg/day
[8]; [35]
  NEL: 20 mg/kg/day
  NOAEL: 20 mg/kg/day
[9]; systemic / clinical chemistry / cholesterol / cholesterol + systemic / pathology microscopic / liver / [other]
  LOAEL: 35 mg/kg/day
[9]; systemic / in life observation / food consumption / food consumption + systemic / clinical chemistry / cholesterol / cholesterol
  LEL: 11.3 mg/kg/day
[9]; [36]
  NEL: 2.7 mg/kg/day
  NOAEL: 11.3 mg/kg/day
[10]
  LEL: 12.5 mg/kg/day
  LOAEL: 12.5 mg/kg/day
  NEL: 2.5 mg/kg/day
  NOAEL: 2.5 mg/kg/day
[11]; [37]
  LEL: 20 mg/kg/day
  LOAEL: 20 mg/kg/day
  NEL: 10 mg/kg/day
  NOAEL: 10 mg/kg/day
[11]; [38]
  LOAEL: 90 mg/kg/day
  NEL: 20 mg/kg/day
  NOAEL: 20 mg/kg/day
[11]; group: maternal, systemic / organ weight / liver / absolute + reproductive / offspring survival early / live fetuses / live fetuses + reproductive / …
  LEL: 90 mg/kg/day

## COc1c(Cl)ccc(Cl)c1C(=O)O [Dicamba]
[12]; [39]
  LEL: 300 mg/kg/day
  LOAEL: 300 mg/kg/day
  NEL: 150 mg/kg/day
  NOAEL: 150 mg/kg/day
[12]; [40]
  LEL: 150 mg/kg/day
  LOAEL: 150 mg/kg/day
[12]; [41]
  NEL: 30 mg/kg/day
  NOAEL: 30 mg/kg/day
[13]; systemic / pathology microscopic / lung / [other]
  NEL: 2 mg/kg/day
[13]; systemic / pathology microscopic / lung / [other] + systemic / in life observation / clinical signs / inappetence
  LEL: 11 mg/kg/day
[13]; [42]
  LOAEL: > 52 mg/kg/day
  NOAEL: ≥ 52 mg/kg/day
[14]
  LEL: 125 mg/kg/day
  LOAEL: > 125 mg/kg/day
  NEL: 12.5 mg/kg/day
  NOAEL: ≥ 125 mg/kg/day
[15]; [43]
  LOAEL: 358 mg/kg/day
  NOAEL: 108 mg/kg/day
[15]; systemic / organ weight / kidney / nos
  LEL: 121 mg/kg/day
[15]; systemic / organ weight / kidney / nos + systemic / in life observation / body weight / body weight gain
  NEL: 18.8 mg/kg/day
[16]; [32]
  LOAEL: 122 mg/kg/day
[16]; group: offspring, systemic / in life observation / body weight / offspring (pup) weight + systemic / organ weight / liver / relative to body weight
  NOAEL: 40 mg/kg/day
[16]; [44]
  LEL: 40 mg/kg/day
  NEL: < 40 mg/kg/day
[16]; [45]
  LEL: 40 mg/kg/day
  NEL: < 40 mg/kg/day
[16]; group: parental, systemic / organ weight / liver / relative to body weight
  LOAEL: 419 mg/kg/day
[16]; group: parental, systemic / organ weight / liver / relative to body weight + systemic / in life observation / body weight / body weight + systemic / organ …
  NOAEL: 122 mg/kg/day

## c1ccc(Nc2ccccc2)cc1 [Diphenylamine]
[17]; [46]
  LOAEL: 368 mg/kg/day
  NOAEL: 73.2 mg/kg/day
[17]; [47]
  LEL: 73.2 mg/kg/day
  NEL: < 73.2 mg/kg/day
[18]; [48]
  LOAEL: 138 mg/kg/day
  NEL: 7.5 mg/kg/day
  NOAEL: 24.9 mg/kg/day
[18]; systemic / hematology / erythrocyte (rbc) count differential / erythrocyte (rbc) + systemic / pathology gross / spleen / discolored + …
  LEL: 24.9 mg/kg/day
[19]; [49]
  LOAEL: 547 mg/kg/day
  NEL: 9.6 mg/kg/day
  NOAEL: 95.8 mg/kg/day
[19]; systemic / pathology microscopic / spleen / hematopoietic cell proliferation erythrocytic
  LEL: 95.8 mg/kg/day
[20]; [32]
  LEL: 115 mg/kg/day
  LOAEL: 115 mg/kg/day
  NEL: 40 mg/kg/day
  NOAEL: 40 mg/kg/day
[20]; [50]
  LEL: 40 mg/kg/day
  LOAEL: 40 mg/kg/day
  NEL: < 40 mg/kg/day
  NOAEL: < 40 mg/kg/day
[20]; [51]
  LEL: 399 mg/kg/day
  LOAEL: 399 mg/kg/day
  NEL: 115 mg/kg/day
  NOAEL: 115 mg/kg/day
[21]; [52]
  LOAEL: 50 mg/kg/day
  NOAEL: 10 mg/kg/day
[21]; [53]
  LEL: 10 mg/kg/day
  NEL: < 10 mg/kg/day
